From patent US9403806B1, “Cognition enhancing compounds and compositions, methods of making, and methods of treating” (NeuroSolis, Inc., priority 2010, dated 2016)

Assays:
Format in all cases: cell-based
[1] = target: T1, human muscarinic M1 receptors (Homo sapiens, UniProt P11229); test: IP production in A9L cells with human M1 receptors (IPOne TR-FRET), Example 28; conditions: for huM1/A9L Smax: percentage of maximal stimulation by carbachol; for huM1/A9L ED50 relative to CCh*: potency relative to carbachol at its EC50, semi-quantitative; for potency and efficacy at M1 muscarinic receptors (in words): huM1/A9L
T1 construct: host or cells: A9L cells
T1 sequence (P11229 1-460): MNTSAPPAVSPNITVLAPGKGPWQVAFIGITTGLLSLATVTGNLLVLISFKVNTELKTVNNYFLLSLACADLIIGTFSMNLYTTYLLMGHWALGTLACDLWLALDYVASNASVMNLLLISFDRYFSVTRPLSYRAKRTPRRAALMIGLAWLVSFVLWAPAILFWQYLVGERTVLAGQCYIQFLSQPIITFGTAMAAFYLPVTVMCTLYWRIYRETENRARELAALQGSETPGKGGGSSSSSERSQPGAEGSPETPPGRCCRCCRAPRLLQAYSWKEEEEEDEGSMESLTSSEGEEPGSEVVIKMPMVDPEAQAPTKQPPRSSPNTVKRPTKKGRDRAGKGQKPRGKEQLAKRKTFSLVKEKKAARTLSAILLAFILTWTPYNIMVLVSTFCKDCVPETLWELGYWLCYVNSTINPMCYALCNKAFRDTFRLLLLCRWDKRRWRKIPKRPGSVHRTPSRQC
Method: (§1) Muscarinic M1 and M3 agonist activity was evaluated by measuring the stimulation of inositol phosphate (IP) production in the presence of lithium chloride from A9L cells transfected with expression plasmids containing human muscarinic M1 and M3 receptors, respectively. The cell lines were a gift from Professor W Messer, and the methods were as described in Tejada F R et al. J. Med. Chem. 2006; 49: 7518-31 except that the assay was scaled down to run in 384 well plates, and IP was measured in the cell lysates using the non-isotopic IPOne TR-FRET assay (CIS-BIO, Inc).
(§2) Cells were grown to 90% confluence in 384 well hi-base plates (Greiner Bio-One), compounds were added at suitable concentrations in growth medium containing 10 mM LiCl, buffered with an extra 10 mM HEPES (pH7.4), and incubated for 60 minutes at 37° C. Cells were lysed and assayed for IP following the manufacturer's instructions.
(§3) The value for a full agonist is 100%, while partial agonists give values below 100%.

[2] = target: T2, human muscarinic M3 receptors (Homo sapiens, UniProt P20309); test: IP production in A9L cells with human M3 receptors (IPOne TR-FRET), Example 28; conditions: for huM3/A9L Smax: percentage of maximal stimulation by carbachol; for huM3/A9L ED50 relative to CCh*: potency relative to carbachol at its EC50, semi-quantitative
T2 construct: host or cells: A9L cells
Method: as §1, §2, §3

[3] = target: T1, human muscarinic M1 receptors; conditions: relative to the potency of carbachol at its EC50
Method: (§4) Muscarinic M1 and M3 agonist activity was evaluated by measuring the stimulation of inositol phosphate (IP) production in the presence of lithium chloride from A9L cells transfected with expression plasmids containing human muscarinic M1 and M3 receptors, respectively. The cell lines were a gift from Professor William Messer, and the methods were as described in Tejada et al. (J. Med. Chem. 2006; 49: 7518-31) except that the assay was scaled down to run in 384-well plates and the concentration of inositol-1-phosphate in the lysates was determined using the non-isotopic IP-One Terbium TR-FRET assay kit (Cisbio Bioassays, cat. #62IPAPEJ) according to the manufacturer's instructions.
(§5) Cells were grown to 90% confluence in 384-well high-base, small-volume plates (Greiner Bio-One), compounds were added at suitable concentrations in growth medium containing 10 mM LiCl, buffered with an extra 10 mM HEPES (pH=7.4), and incubated for 60 minutes at 37° C. Cells were lysed and assayed for IP following the manufacturer's instructions.
as §3

[4] = target: T2, human muscarinic M3 receptors; conditions: relative to the potency of carbachol at its EC50
Method: as §4, §5, §3

T2 sequence (P20309 whole entry): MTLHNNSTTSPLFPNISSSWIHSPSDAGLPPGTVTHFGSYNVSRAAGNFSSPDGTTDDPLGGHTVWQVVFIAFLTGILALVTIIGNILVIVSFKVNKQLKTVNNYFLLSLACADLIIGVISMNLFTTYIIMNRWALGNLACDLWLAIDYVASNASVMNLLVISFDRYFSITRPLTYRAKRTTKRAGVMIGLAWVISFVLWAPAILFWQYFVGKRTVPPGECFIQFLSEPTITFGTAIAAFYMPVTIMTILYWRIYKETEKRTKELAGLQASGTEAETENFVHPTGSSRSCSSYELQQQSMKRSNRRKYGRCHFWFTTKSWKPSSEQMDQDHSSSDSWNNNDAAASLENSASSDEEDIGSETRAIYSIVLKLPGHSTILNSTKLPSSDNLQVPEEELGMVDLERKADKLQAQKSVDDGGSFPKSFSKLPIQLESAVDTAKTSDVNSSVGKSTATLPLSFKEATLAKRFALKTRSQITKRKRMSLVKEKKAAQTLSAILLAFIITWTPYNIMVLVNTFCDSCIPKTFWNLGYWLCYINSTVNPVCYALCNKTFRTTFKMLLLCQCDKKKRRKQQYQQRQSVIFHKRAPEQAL

SMILES | huM1/A9L Smax [1] | huM1/A9L ED50 relative to CCh* [1] | huM3/A9L Smax [2] | huM3/A9L ED50 relative to CCh* [2] | potency and efficacy at M1 muscarinic receptors (in words) [1] | huM1/A9L Potency relative to carbachol [3] | huM3/A9L Potency relative to carbachol [4]
Cc1noc([C@H]2CNCC[C@H]2C)n1 [Compound 22] | 7% | inactive | 15% | inactive |  |  | 
Cc1noc([C@H]2CNC[C@@H](C)C2)n1 [Compound 20] | 9% | inactive | 20% | inactive |  |  | 
CCc1noc(C2CCCNC2)n1 (stereo not drawn) [Compound 38, 3-ethyl-5-(piperidin-3-yl)-1,2,4-oxadiazo1e] | 15% | inactive | <14% | inactive | essentially inactive |  | 
Nc1noc(C2CCCNC2)n1 (stereo not drawn) [Compound 27, 3-Amino-5-(piperidin-3-yl)-1,2,4-oxadiazole] | 97% | + (+ potency 2-10x CCh) | 20% | +/− (+/− potency 0.5-2x CCh) |  |  | 
Cc1noc(C23CNCC2C3)n1 (racemic) [Compound 121, 5-(4,4-d2-3-Azabicyclo[3.1.0]hexan-1-yl)-3-methyl-1,2,4-oxadiazole] |  |  |  |  |  | 1.10 | 0.45
c1nsc(C2CCCNC2)n1 (stereo not drawn) [Compound 12b, 5-(piperidin-3-yl)-1,2,4-thiadiazol] | 100% | − (− potency <0.5-0.1x CCh) | 60% | −− (−− potency <0.1x CCh) |  |  | 
Cc1nsc(C2CCCNC2)n1.Cl (stereo not drawn) [Compound 12a, 3-methyl-5-(piperidin-3-yl)-1,2,4-thiadiazole hydrochloride] | 101% | + (+ potency 2-10x CCh) | 58% | + (+ potency 2-10x CCh) |  |  | 
Cc1noc([C@@H]2CNC[C@@H](C)C2)n1 [Compound 21] | 18% | inactive | 14% | inactive |  |  | 
Cc1noc(C2CCC(C)NC2)n1 (stereo not drawn) [Compound 18, 3-Methyl-5-(6-methylpiperidin-3-yl)-1,2,4-oxadiazole] | 14% | inactive | 18% | inactive |  |  | 
Cc1noc(C2CCCN(C)C2)n1 (stereo not drawn) [Compound 5, 3-Methyl-5-(1-methylpiperidin-3-yl)-1,2,4-oxadiazole] | 20% | inactive | 20% | inactive | essentially inactive |  | 
Cc1noc([C@@H]2CCCN[C@@H]2C)n1 [Compound 24] | 41% | −− (−− potency <0.1x CCh) | 32% | inactive |  |  | 
Cc1noc([C@@H]2CNCC[C@H]2C)n1 [Compound 23] | 23% | inactive | 19% | inactive |  |  | 
Cc1noc([C@H]2CC[C@H](C)NC2)n1 [Compound 19] | 15% | inactive | 34% | inactive |  |  | 
Cc1noc([C@H]2CCCN[C@@H]2C)n1 [Compound 25] | 3% | inactive | 20% | inactive |  |  | 
Cc1noc(C2CCNC2)n1 (stereo not drawn) [Compound 31, 3-methyl-5-(pyrrolidin-3-yl)-1,2,4-oxadiazole] | 113% | + (+ potency 2-10x CCh) | 60% | − (− potency <0.5-0.1x CCh) |  |  | 
